Laboratory results as given in patent US4762781A, “Antibodies capable of specifically identifying haptenic groups, their preparation and their use and to new antigens permitting their preparation” (priority 1983, dated 1988).
“Also recorded” adds a separate entry of the source. Like-named read-outs stand apart in the source and are kept apart here.

Experiments:
anti-DA antibodies = assay: Equilibrium dialysis competition, displacement of (3H) DA-G-ALM; assay type: binding, rabbit; conditions: for affinity constant KA: displacement of (3H) DA-G-ALM from anti-DA antibodies; for affinity constant KA / KA: 1200 min; for KA: conjugates, cross-reactivity with anti-DA antibodies
anti-TA antibodies = assay: Equilibrium dialysis competition, displacement of (3H)-TA-G-ALM; assay type: binding, rabbit; conditions: for affinity constant KA: displacement of (3H)-TA-G-ALM from anti-TA antibodies; for affinity constant KA / KA: 1200 min; for KA: conjugates, slight immunoreactivity with anti-TA antibodies
anti-GABA antiserum = assay: Equilibrium dialysis competition with tracer (3H) GABA-GA-PPL; assay type: binding, rabbit; conditions: for cross-reactivity, times less than that of the GABA-GA-PPL conjugate: anti-GABA antiserum
Description: The antibody solution is placed on one side of the membrane. Each conjugate of catecholamine is mixed with an equal volume of radioactive ligand before being placed on the other side of the membrane. The incubation solution of each antiserum is a citrate buffer 0.1M (pH 6.2) containing 1 mg/ml of bovine serum albumin (BSA) and 10 mM of sodium azide (N3 Na). The final volume is 2×150 microliters. This is left to incubate at 4° C. for 20 hours. Next the beta radioactivity in a sample of 100 microliters taken from each side of the membrane is counted.
Studies of specificity were conducted using the method of equilibrium dialysis, by competition of the tracer (^3 H) GABA-GA-PPL and the various conjugated analogues GABA-GA-PPL, glycine-GA-PPL, etc.

GABA antiserum = assay: Immunocytochemical absorption controls of GABA antiserum on rat brain sections; set-up: species or system rabbit; conditions: absorption with a 10^-3 M solution
Description: Rat brains were fixed by perfusion with a 5% solution of glutaraldehyde in a cacodylate buffer, 0.1M, pH 7.5. The brain was cut in slices approximately 4 mm thick and then fixed again for 1.5-2 hours using the same fixative.
Sections of 50 micrometers were incubated with GABA antiserum diluted to 1/1,500. This antiserum was visualized using the peroxidase-antiperoxidasemethod, with diaminobenzidine as the chromogen.

Anti-NA antibodies = assay type: binding, rabbit
Anti-W antibodies = assay: ELISA competition, affinity and specificity of anti-indolamine antibodies; assay type: binding, rabbit
Description: This study was performed using an ELISA test (Enzyme-linked immunosorbent assay). The plates were coated with a solution of BSA-G-indolamine conjugate and then saturated with bovine serum. they were then placed in contact with the antibody solution under study, and then with anti-(rabbitgammaglobulin) goat antibodies conjugated with peroxidate of horseradish.

[1] = concentrations between 10^-9 M and 10^-8 M

## CNC(=O)[C@H](CCCCNCCCCCNCCc1ccc(O)c(O)c1)NC(C)=O [DA-G-ALM]
anti-DA antibodies
  displacement of (3H) DA-G-ALM / recognition by anti-DA antibodies: No displacement
  affinity constant KA: 6.7×10^7 l.mol.^-1
anti-DA antibodies; listed as DA-b-ALM
  displacement of (3H) DA-G-ALM / recognition by anti-DA antibodies: best displacement
anti-TA antibodies
  displacement of (3H)-TA-G-ALM / recognition by anti-TA antibodies: No displacement; also recorded: no affinity
  affinity constant KA: 2.6×10^4 l.mol.^-1

## NCCCC(=O)O [GABA, gamma-aminobutyric acid, reference compound]
anti-GABA antiserum; even at a concentration of 10^-5 M
  displacement of the radioactive ligand (3H) GABA-GA-PPL: incapable of displacing
GABA antiserum
  coloration after absorption of the serum: very great reduction in coloration

## O=C(O)CCCNCCCCCNCCCC[C@H](NC(=O)[C@H](Cc1ccccc1)NC(=O)[C@@H]1CCCN1)C(=O)O [GABA--GA--lysine]
anti-GABA antiserum; dissociation constant of the anti-GABA antibodies for the antigen
  Kd: 20 nM

## CNC(=O)[C@H](CCCCNCCCCCN[C@@H](Cc1ccc(O)c(O)c1)C(=O)O)NC(C)=O [L-DOPA--G--ALM]
anti-DA antibodies
  KA: 3.8 × 10^5 1. mol.^-1
anti-TA antibodies
  KA: 3.3 × 10^5 1. mol.^-1

## NC[C@H](O)c1ccc(O)c(O)c1 [NA, norepinephrine, reference compound]
Anti-NA antibodies
  displacement: no displacement

## CNC(=O)[C@H](CCCCNCCCCCNCC(O)c1ccc(O)c(O)c1)NC(C)=O (some centres unmarked) [NA-G-ALM]
anti-DA antibodies; anti-DA antibodies
  reactivity, times lower than that of DA-G-ALM: 53 times
anti-DA antibodies
  affinity constant KA: 5×10^5 l.mol.^-1
Anti-NA antibodies
  displacement: best displacement
Anti-NA antibodies; 1200 min
  KA: 3.8e+07 L/mol
anti-TA antibodies
  displacement of (3H)-TA-G-ALM / recognition by anti-TA antibodies: No displacement
  affinity constant KA: 1.4×10^4 l.mol.^-1

## CNC(=O)[C@H](CCCCNCCCCCNCC(O)c1ccc(O)cc1)NC(C)=O (some centres unmarked) [OA--G--ALM]
anti-DA antibodies
  KA: 5 × 10^4 1. mol.^-1
anti-TA antibodies
  KA: 5.9 × 10^5 1. mol.^-1

## NCCc1ccc(O)cc1 [TA, p-tyramine, reference compound]
anti-TA antibodies
  displacement of (3H)-TA-G-ALM / recognition by anti-TA antibodies: incapable of displacing
  affinity constant KA: 10^4 l.mol.^-1

## CNC(=O)[C@H](CCCCNCCCCCNCCc1ccc(O)cc1)NC(C)=O [TA-G-ALM]
anti-DA antibodies
  displacement of (3H) DA-G-ALM / recognition by anti-DA antibodies: No displacement; also recorded: do not recognize
  KA: 3.1 × 10^4 1. mol.^-1
anti-TA antibodies
  affinity constant KA: 7×10^7 l.mol.^-1

## N[C@@H](Cc1c[nH]c2ccccc12)C(=O)O [Tryptophane, L-tryptophane]
Anti-W antibodies
  displacement / identification by anti-W antibodies: only weakly identified

## O=C(O)CC(NCCCCCNCCCC[C@H](NC(=O)[C@H](Cc1ccccc1)NC(=O)[C@@H]1CCCN1)C(=O)O)C(=O)O (some centres unmarked) [aspartate conjugate]
anti-GABA antiserum; [1]
  reactivity with anti-GABA antiserum: No reactivity

## O=C(O)CCNCCCCCNCCCC[C@H](NC(=O)[C@H](Cc1ccccc1)NC(=O)[C@@H]1CCCN1)C(=O)O [beta-alanine conjugate]
anti-GABA antiserum
  cross-reactivity, times less than that of the GABA-GA-PPL conjugate: 175 times

## NCCc1ccc(O)c(O)c1 [dopamine, reference compound]
anti-DA antibodies
  affinity constant KA: 6.7×10^3 l.mol.^-1
anti-DA antibodies; even at a concentration of 10^-6 M
  displacement of (3H) DA-G-ALM by unmodified hapten: not capable of displacing

## O=C(O)CCC(NCCCCCNCCCC[C@H](NC(=O)[C@H](Cc1ccccc1)NC(=O)[C@@H]1CCCN1)C(=O)O)C(=O)O (some centres unmarked) [glutamate conjugate]
anti-GABA antiserum; [1]
  reactivity with anti-GABA antiserum: No reactivity

## O=C(O)CNCCCCCNCCCC[C@H](NC(=O)[C@H](Cc1ccccc1)NC(=O)[C@@H]1CCCN1)C(=O)O [glycine conjugate]
anti-GABA antiserum
  cross-reactivity, times less than that of the GABA-GA-PPL conjugate: 795 times

## O=C(O)[C@H](CCCCNCCCCCNCCS(=O)(=O)O)NC(=O)[C@H](Cc1ccccc1)NC(=O)[C@@H]1CCCN1 [taurine conjugate]
anti-GABA antiserum
  reactivity with anti-GABA antiserum: on the same order or magnitude as with the conjugate of aspartate or glutamate
